The test system of one series is sciatic nerve. Description: Local injection proximal to the sciatic nerve, rat hot plate assay / dose-response. The class given is in vivo. As to conditions: rats, local injection of 25 mg/kg (8 mg/nerve).
A further series relates to Sprague-Dawley rats. Briefly: Single dose toxicity (acute lethality) in rats, intramuscular. The class given is in vivo. As to conditions: for Mortality: I.M. The method, then:
Sprague-Dawley rats from Charles River, 6-8 weeks of age (body weight about […] for females and about 200-290 grams for males) were used for these studies.
Male and female rats were dosed intramuscularly in the hind limb with bupivacaine base (the form used in the microspheres), aqueous bupivacaine HCl, or LAB. The animals were examined for pharmacotoxic signs (including tremors and convulsions, and death).

The conditions of series [1]: in vivo; cited from earlier work.

Here are results for three compounds from US6699908B2, “Methods for providing safe local anesthesia” (Euro-Celtique, S.A., priority 1996, dated 2004).

Where a name gives a salt, the structure may show the parent alone.

Take `CCCCN1CCCCC1C(=O)Nc1c(C)cccc1C` (stereo not drawn) [Bupivacaine HCl, bupivacaine HCl]: the “deaths of the animals” value with sciatic nerve was “about 10%”. Further, the Mortality is on record as 0/4 in the series with Sprague-Dawley rats (5 mg/kg); 0/4 with Sprague-Dawley rats (10 mg/kg); 0/4 in the series on Sprague-Dawley rats (25 mg/kg); 4/4 with Sprague-Dawley rats (50 mg/kg, HCl); 4/4 with Sprague-Dawley rats (100 mg/kg, HCl). The lowest lethal dose with Sprague-Dawley rats (intramuscular dosing) was determined as 10.6 mg/kg. Moreover, the “paralysis of the hindlimb (local motor anesthesia)” value with Sprague-Dawley rats (intramuscular dosing in the hind limb) is reported as “More transient paralysis”.

On to `CCCCN1CCCCC1C(=O)Nc1c(C)cccc1C` (stereo not drawn) [Bupivacaine free base, bupivacaine base], for which the results for the Mortality with Sprague-Dawley rats (50 mg/kg), in the series on Sprague-Dawley rats (100 mg/kg) and with Sprague-Dawley rats (150 mg/kg) were 1/4, 1/4 and 2/4, respectively.

As to `CCCCN1CCCCC1C(=O)Nc1c(C)cccc1C` (stereo not drawn) [bupivacaine], the “plasma concentrations associated with toxicity” value in series [1] was over 1600 ng/mL.
